Experimental data published in patent US7226939B2, “Thienopyridine analogues with antifungal activity and process thereof” (priority 2002, dated 2007).

Test system: C. albicans
Test: In vitro antifungal susceptibility testing (MIC), soyabean casein digest broth
Assay type: cell-based
Settings: Candida albicans, reference standard, end points after 48 hours, read-out: minimum inhibitory concentration
Method: In vitro evaluation of antifungal activity can be performed by determining the minimum inhibitory concentration.
Anti-fungal susceptibility testing of these anti-fungal compounds was done by conventional method using soyabean casein digest broth. Known anti-fungal agents like Fluconazole and amphotericin-B were used as positive Control. End points were determined after 48 hours visually and by using Spectrophotometer wherever necessary. Different dilutions were tried and the set of experiments where repeated to confirm the end points. Standard cultures of Candida, Aspergillus and Fusarium were used for screening of these drugs.
Substituents and In-Vitro Anti-Fungal Activity (C. albicans) of the Compounds Expressed as MIC* (μg/ml). Reference Standard (RS) Fluconazole.

MIC: < 3.12 µg/mL
SMILES: OC(Cn1cncn1)(Cn1cncn1)c1ccc(F)cc1F [Fluconazole]
